These results are taken from US5811391A, “Cyclic CS-1 peptidomimetics, compositions and methods of using same” (Cytel Corporation, priority 1995, dated 1998).

The conditions of data set [1]: Elices et al. 1993; cited from earlier work.
Data set [2] can be described thus: Retention of potency in PBS containing 10 percent mouse or human serum. The following applies: PBS at 7.2-7.4 containing 10 percent mouse or human serum. The format is in vitro ADME.
The test system of data set [3] is contact hypersensitivity. The following applies: Ferguson et al. 1991; cited from earlier work.
The test system of data set [4] is porcine peripheral blood lymphocytes / coronary artery endothelial cells and smooth muscle cells. In words: In vitro porcine allograft model: transendothelial lymphocyte migration. The format is cell-based. The following applies: 10 μg/ml in the medium, IL-1β-stimulated SMC; present-tense example. As to the method: A similar study is carried out in vitro using porcine coronary artery endothelial cells (EC; as are present in the IEL) and smooth muscle cells (SMC; as are present in the medial layer of the artery). The two cell types are cultured using a membrane transwell system, with the SMC on the bottom layer in M-199 medium (Gibco Labs.). The SMC are stimulated with 100 ng/ml of interleukin-1β (IL-1β) for 24 hours prior to the start of the assay. Porcine peripheral blood lymphocytes are separated by Ficoll-Hypaque, radiolabeled and incubated overnight (about 18 hours) on the EC.

Data set [5] has as its target VLA-4 (Homo sapiens, UniProt P05556+P13612). Nature of the data set: In vitro binding assay: 51Cr-labeled Jurkat cells to solid phase-bound CS-1 peptide (SEQ ID NO:5). It counts as cell-based. Also on record: inflammatory cells that contain the VLA-4 receptor [Jurkat cells; host or cells: Jurkat cells (human T lymphoblastic line). The following applies: for Relative Potency: Table 1, normalized IC50 potency relative to standard peptide SEQ ID NO:6 (=1), Jurkat cells, CS-1. The protocol:
Binding inhibition is measured here as a concentration of peptide that inhibits one-half the binding between a standard number of Jurkat cells and a standard amount of CS-1 peptide bound to the surface of a microtiter plate well. Those concentrations are conveniently expressed as IC50 values, smaller numbers indicating a lower concentration required to inhibit 50 percent binding and therefore greater potency. Further specifics of this assay are provided hereinafter.
Jurkat cells (ATCC TIB 152), a human T lymphoblastic line, labeled with ^51 chromium were used to assay in vitro binding inhibition provided by various peptides discussed herein.
The plates were prepared as follows: The 25-mer CS-1 peptide (SEQ ID NO:5) dissolved at 0.5-1 μg/ml in a buffer of 0.1M NaHCO3 at pH 9.5 that also contained 10 μg/ml of bovine serum albumin (BSA) or a conjugate of the CS-1 peptide linked to ovalbumin (CS-1-OVA) dissolved at 1-2.5 μg/ml in the same buffer was used as the substrate. Each well of the microtiter plates was coated with 50 μl of substrate or buffer alone for controls. The wells were permitted to dry out completely and were then rinsed twice with PBS at pH 7.4. Non-specific binding sites of each well were then blocked using 200 μl per well of RPMI/1 percent BSA for two hours at room temperature. Both solid phase-affixed substrates provided similar results.
Jurkat cells (3-5×10^6 cells) were placed into a 15 ml FALCON™ round-bottom tube with a cap. The tube was centrifuged, and the extra medium was then removed.
Two hundred microliters of a ^51 Cr labeling solution were added to the centrifuged cells and maintained in contact with the cells for 90-120 minutes in a warm room. This procedure typically provides about 50,000-100,000 cpm/well with about 80-100 percent cell viability. Longer contact times provide a greater amount of labeling but lower cell viability.
The labeled cells were washed with (i) complete medium, (ii) 1mM EDTA/PBS and then (iii) RPM1/1 percent BSA free of serum components. The cells were centrifuged after each washing. The cells were finally resuspended in serum-free RPMI/1 percent BSA at a concentration of 1×10^6 viable cells/ml, which provides a concentration that is diluted by one-half in the assay.
Cyclic inhibitor peptides were prepared as stock solutions at 20 mg/ml in DMSO in 1.5 ml cryogenic screwcap vials, and were stored at -70° C. Using FLOW™ round-bottom or V-bottom microtiter plates, the inhibitor peptides were prepared at twice the assay concentration in RPMI/1 percent BSA at 60 μl/well.
Four initial dilutions were typically used.
The ^51 Cr-labeled cells (1×10^6 cells at 60 μl/well) were then admixed with the diluted cyclic peptide solutions. The admixtures were maintained at room temperature (about 22° C.) for 30 minutes.
One hundred microliters of each inhibitor peptide/cell admixture were transferred to the substrate-coated wells. This was done in triplicate for each dilution. The resulting plates were incubated for 30 minutes at 37° C. and then washed gently three times with RPMI/1 percent BSA at 200 μl/well. Binding was observed microscopically, particularly after the second wash.
The bound cells were then lysed by the addition of a 0.5 percent solution of sodium dodecylsulfate in water at 100 μl/well. The resulting solutions were then processed for counting and calculation of IC50 values following usual procedures. Appropriate positive and negative controls were used with each plate so that the results of separate assays could be normalized and compared.
The potency data of Table 1 and Table 2 are so normalized. The absolute IC50 value for the peptide of SEQ ID NO:7 is 0.3 μM.

Data set [6] relates to Jurkat cell adhesion to RA synovial sections. The following applies: 10-mer at 500 μg/ml; reported in Elices et al., J. Clin. Invest. 1994; cited from earlier work.
Data set [7] deals with T1, VLA-4/sVCAM-1 (Homo sapiens, UniProt P05556+P13612).
T1 construct: host or cells: Jurkat cells carry the VLA-4; The sVCAM-1 partner was made in house in transfected human embryonal kidney 293 cells (ATCC CRL 1573)
Nature of the data set: In vitro binding assay: Jurkat cells to solid phase-bound sVCAM-1. The format is cell-based. As to the method: Assays conducted using sVCAM-1 as solid phase-bound antigen were carried out substantially identically to those using CS-1. The sVCAM-1 polypeptide used had the same amino acid residue sequence as the materials described in Lobb et al., Biochem. Biophys. Res. Commun., 178:1498-1504 (1991) and Cybulsky et al., Proc. Natl. Acad. Sci., USA, 88:7859-7863 (1991). Human embryonal kidney line 293 (ATCC CRL 1573) cells were co-transfected with a plasmid (pCDNAI;invitrogen) containing the sVCAM-1 DNA sequence and plasmid pSV2-neo [Southern et al., J. Mol. Appl. Gen., 1:327-341 ([…])]. Cells were selected in DMEM, 10 percent fetal bovine serum and 600 μg/ml Geneticin. sVCAM-1 was purified from supernatants using a column containing monoclonal antibody P3H12 (anti-human VCAM-1) coupled to Sepharose 4B. The sVCAM-1 was eluted using 0.1M glycine at pH 2.5 following 50 column washes with PBS, pH 7.2. The eluate was immediately neutralized and dialyzed against PBS for use.

Positions of bridges follow the written chain, without caps; N, C: chain ends. Residues, ends and D or L forms follow the SMILES beside them. No end group written: not given here.

Chain of VLA-4 (P13612 34-1032): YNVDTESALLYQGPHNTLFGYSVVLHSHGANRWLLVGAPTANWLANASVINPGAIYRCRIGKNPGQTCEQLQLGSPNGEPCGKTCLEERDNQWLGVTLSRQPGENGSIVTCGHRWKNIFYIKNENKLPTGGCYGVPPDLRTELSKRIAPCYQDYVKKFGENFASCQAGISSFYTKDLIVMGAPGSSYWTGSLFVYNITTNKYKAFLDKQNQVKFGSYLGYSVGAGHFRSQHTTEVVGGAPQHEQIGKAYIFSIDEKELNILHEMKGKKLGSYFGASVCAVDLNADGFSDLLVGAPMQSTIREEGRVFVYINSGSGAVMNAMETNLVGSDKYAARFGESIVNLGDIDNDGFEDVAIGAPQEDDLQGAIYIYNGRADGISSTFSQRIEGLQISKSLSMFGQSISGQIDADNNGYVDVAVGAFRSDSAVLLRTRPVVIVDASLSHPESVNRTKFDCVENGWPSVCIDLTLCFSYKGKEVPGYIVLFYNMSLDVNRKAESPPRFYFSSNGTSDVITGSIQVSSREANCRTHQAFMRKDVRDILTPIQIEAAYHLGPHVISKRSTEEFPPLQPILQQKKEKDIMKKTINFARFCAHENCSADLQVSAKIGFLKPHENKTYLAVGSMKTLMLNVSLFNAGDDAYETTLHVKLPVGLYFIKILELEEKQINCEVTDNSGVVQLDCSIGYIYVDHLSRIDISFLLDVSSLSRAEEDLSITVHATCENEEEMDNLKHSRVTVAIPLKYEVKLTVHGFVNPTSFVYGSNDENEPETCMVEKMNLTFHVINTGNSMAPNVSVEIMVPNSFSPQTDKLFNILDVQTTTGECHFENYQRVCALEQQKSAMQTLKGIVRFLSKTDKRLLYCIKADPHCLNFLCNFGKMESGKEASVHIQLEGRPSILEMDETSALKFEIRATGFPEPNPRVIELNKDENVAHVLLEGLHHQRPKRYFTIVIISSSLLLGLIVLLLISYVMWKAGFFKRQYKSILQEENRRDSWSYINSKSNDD
Chain of VLA-4 (P05556 21-798): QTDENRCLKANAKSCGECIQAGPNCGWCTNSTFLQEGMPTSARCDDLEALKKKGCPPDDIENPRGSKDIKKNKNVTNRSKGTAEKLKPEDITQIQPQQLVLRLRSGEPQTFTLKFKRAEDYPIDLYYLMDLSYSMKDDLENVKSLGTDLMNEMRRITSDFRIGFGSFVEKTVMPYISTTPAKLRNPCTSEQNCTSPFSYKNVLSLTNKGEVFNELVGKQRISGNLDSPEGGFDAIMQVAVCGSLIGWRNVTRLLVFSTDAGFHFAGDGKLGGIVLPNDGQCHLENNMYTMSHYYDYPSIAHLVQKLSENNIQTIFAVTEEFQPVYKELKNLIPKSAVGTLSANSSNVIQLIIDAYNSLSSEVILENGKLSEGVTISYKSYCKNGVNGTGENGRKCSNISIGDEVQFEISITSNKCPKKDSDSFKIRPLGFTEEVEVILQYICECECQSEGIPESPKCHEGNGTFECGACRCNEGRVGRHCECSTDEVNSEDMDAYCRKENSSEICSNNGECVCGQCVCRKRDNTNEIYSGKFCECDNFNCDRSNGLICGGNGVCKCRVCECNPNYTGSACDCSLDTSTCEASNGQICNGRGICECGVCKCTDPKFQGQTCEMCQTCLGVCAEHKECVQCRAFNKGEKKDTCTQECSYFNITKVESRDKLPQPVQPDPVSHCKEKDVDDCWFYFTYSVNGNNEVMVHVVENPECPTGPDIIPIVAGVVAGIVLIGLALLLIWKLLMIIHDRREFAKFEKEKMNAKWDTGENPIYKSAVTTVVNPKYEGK
T1 sequence (P13612 34-1032): as the sequence (P13612 34-1032) above
T1 sequence (P05556 21-798): as the sequence (P05556 21-798) above

Consider “DELPQLVTLPHPNLHGPEILDVPST [CS-1 peptide, reference compound]”, for which, in data set [1], the “clearance from blood circulation” value was “rapidly cleared from blood circulation by proteolytic degradation”. Moreover, the “loss of potency in serum-containing buffer” value in data set [2] is “lost its potency in less than one hour”.

For Arg-Gly-Asp [Arg-Gly-Asp peptide], the “recruitment of T lymphocytes to skin inflammatory sites” value in data set [3] is “also inhibitory”.

As to `CC(C)C[C@@H]1NC(=O)[C@H](Cc2ccccc2)NC(=O)[C@@H](N)CSSC[C@@H](C(N)=O)NC(=O)[C@H](CO)NC(=O)[C@@H]2CCCN2C(=O)[C@H](Cc2ccccc2)NC(=O)[C@H](CC(=O)O)NC1=O` [SEQ ID NO:13, CFLDFPSC-NH2] (H-CFLDFPSC-NH2; disulfide 1-8), in data set [4], the transendothelial lymphocyte migration entry was “reduces lymphocyte migration”. For the same compound, in data set [5], the “Relative Potency” value is recorded as 122.

On to “GPEILDVPST [SEQ ID NO:6, standard 10-mer peptide GlyProGluIleLeuAspValProSerThr, set atone, reference compound]”, for which the “inhibition of Jurkat cell adhesion to RA synovial sections” value in data set [6] is given as “can be inhibited”. Besides, the “Relative Potency” value in data set [5] is 1. The “Potency in inhibiting Jurkat cell binding to CS-1 relative to standard 10-mer of SEQ ID NO:6” value in data set [5] (times/fold more potent than SEQ ID NO:6) is recorded as around 1. The “inhibition of binding between solid phase-bound sVCAM-1 and Jurkat cells (in words)” value in data set [7] was “no inhibition”.
